Earlier results on two compounds are cited in US20130065255A1, “Biomarker to Measure Drug Efficacy in Enteropathic Disease” (priority 2011, published 2013).

The structures appear in SMILES notation.

The conditions of data set [1]: 20 mg simvastatin dose, healthy volunteers, Park et al.
For data set [2] the following is noted: humans.

Take `CCC(C)(C)C(=O)O[C@H]1C[C@@H](C)C=C2C=C[C@H](C)[C@H](CC[C@@H](O)C[C@@H](O)CC(=O)O)[C@H]21` [Simvastatin acid, simvastatin acid]: in data set [1], the “SVA Cmax” value was 1.2 ± 1.0 ng/mL.

On to `Cc1ncc2n1-c1ccc(Cl)cc1C(c1ccccc1F)=NC2` [midazolam], for which the “dose excreted unchanged in the urine” value in data set [2] was “less than 1%”.
